Source: patent publication US12350277B2, “Compositions and methods of use for treating aberrant inflammation in peri-ocular secretory glands or at the ocular surface” (CS Pharmaceuticals Limited, priority 2017, dated 2025)
Where two headings read alike, the source gives them in different places. Each block holds one compound with its values, some of them ahead of it.

Columns and labels:
NFκB pathway = settings: A549, HeLa, MG63, 16HBE, and H9 cell lines; IL-1β / TNFα stimulation; cited from earlier work
glucocorticoid receptor [1] = biological target: T1, glucocorticoid receptor (Homo sapiens, UniProt P04150); settings: variety of human in vitro assays; cited from earlier work
T1 sequence (P04150 1-777): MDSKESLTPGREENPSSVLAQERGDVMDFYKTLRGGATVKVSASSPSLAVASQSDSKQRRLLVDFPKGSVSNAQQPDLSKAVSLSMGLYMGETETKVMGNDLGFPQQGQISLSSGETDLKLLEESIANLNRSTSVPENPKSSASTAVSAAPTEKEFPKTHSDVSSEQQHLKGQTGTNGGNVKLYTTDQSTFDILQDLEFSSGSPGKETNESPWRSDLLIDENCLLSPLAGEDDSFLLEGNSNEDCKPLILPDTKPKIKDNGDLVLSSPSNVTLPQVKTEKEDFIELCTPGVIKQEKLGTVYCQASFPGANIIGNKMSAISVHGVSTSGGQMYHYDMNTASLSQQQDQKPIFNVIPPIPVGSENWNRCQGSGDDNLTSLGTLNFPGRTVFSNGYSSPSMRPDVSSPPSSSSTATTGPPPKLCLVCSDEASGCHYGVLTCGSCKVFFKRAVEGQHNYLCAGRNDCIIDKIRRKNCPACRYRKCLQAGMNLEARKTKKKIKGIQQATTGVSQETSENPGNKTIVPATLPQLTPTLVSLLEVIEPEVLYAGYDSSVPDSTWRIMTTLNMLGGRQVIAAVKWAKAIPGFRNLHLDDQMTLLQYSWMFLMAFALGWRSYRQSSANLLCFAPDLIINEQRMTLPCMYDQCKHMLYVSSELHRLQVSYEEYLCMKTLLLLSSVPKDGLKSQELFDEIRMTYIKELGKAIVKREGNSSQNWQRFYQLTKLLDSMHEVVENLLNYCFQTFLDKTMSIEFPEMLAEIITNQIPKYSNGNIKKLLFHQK

[2] = ocular exposure and pharmacokinetics after BID eyelid cream administration in minipigs; assay type: in vivo, Hanford minipigs; settings: for concentration at 8 h: 8 hours post final dose
Description: (§1) To determine the ocular exposure and pharmacokinetics following topical cream administration to the eyelids, the cream containing 2% of compound of Formula I was applied BID to eyelids of 8 Hanford minipigs for 7 days and one additional application on day 8 for a total of 15 topical doses. After the last dose on day 8, two animals each were euthanized at 2, 4, 8, and 24 hours after the final dose, and eyes were collected for dissection into the following tissues and fluids: eyelids (including palpebral conjunctiva), bulbar conjunctiva, cornea, iris/ciliary body (ICB), and aqueous humor (AQH). Plasma was also collected (prior to dose application on Days 1 and 8, and prior to euthanasia). […] Meibum was believed to be only one lipid compartment in the eyelids that could act as a depot for lipophilic compounds. […] and other fatty tissues were others. Attempts to express meibum from the ducts, thereby rendering the eyelid itself unusable for further analysis, would have not permitted assessment of drug content in other potential lipid structures in the eyelids. Thus, the decision was made to assess drug exposure in the eyelid as an intact tissue to capture all potential drug depots.
Three different extraction and analytical methods were developed for the determination of the compound of Formula I in i) plasma and aqueous humor; ii) bulbar conjunctiva, cornea, ICB; iii) eyelids. Assay ranges were 0.1-100 ng/mL, 1-1000 ng/g, and 1-1000 ng/g, respectively. Briefly, analytical methods were as follows: i) plasma and aqueous humor standards were from minipig and rabbit, respectively; ii) bulbar conjunctiva, cornea, ICB standard was rabbit cornea; iii) eyelid standard was pig skin. The internal standard working solution for analytical purposes was comprised of 20.0 ng/mL ^13C2, ^15N-labeled compound of Formula I in acetonitrile with 1% formic acid (v/v) which was being added to each sample. The tissue/fluid sample extraction procedure involved i) plasma/aqueous humor sample; ii) bulbar conjunctiva, cornea, ICB homogenization in acetonitrile; iii) eyelid digestion in 1:1 acetonitrile:ammonium hydroxide solution for 1.5 hours at 37° C. followed by acetonitrile addition, homogenization, and neutralization with formic acid; in all cases followed by addition of internal standard working solution, vortexing and centrifugation. Analysis of the samples was then carried out with LC-MS/MS, employing mobile phases A (Water with 0.1% formic acid) and B (acetonitrile with 0.1% formic acid).

[3] = solubility limit in receptor fluid; assay type: physicochemical; settings: not told, aqueous with cosolvent or surfactant or cyclodextrin; phosphate-buffered saline pH 7.4 with 0.01 wt % Na azide and 1 wt % Brij 020
[4] = tested on: rabbits, atropine sulfate model of dry eye disease; test: tear formation (Schirmer test) in atropine sulfate model of dry eye disease; assay type: in vivo; settings: 30 μL eye drops four times per day after atropine sulfate 1%, seven days
Description: Next, the effect on tear formation of treatment with the compound of Formula I was examined. Rabbits were placed in a restraining device, and atropine sulfate 1% ophthalmic solution (30 μL) was instilled into the lower conjunctival sac of each eye four times per day. Fifteen minutes after the administration of each dose of atropine sulfate, each eye received 30 μL of eye drops containing the active ingredient, vehicle, or saline. Tear volume was then evaluated by the Schirmer test (FIG. 2). Schirmer strips were carefully placed in the posterior (i.e., temporal) lower fornix for 60 seconds, and the wetted area was read in millimeters as an index of tear volume.

[5] = tested on: models of lung inflammation; settings: rat, intratracheal dosing; cited from earlier work
[6] = plasma exposure after BID eyelid cream administration in minipigs; assay type: in vivo, Hanford minipigs
Description: as §1
Three different extraction and analytical methods were developed for the determination of the compound of Formula I in i) plasma and aqueous humor; ii) bulbar conjunctiva, cornea, ICB; iii) eyelids. Assay ranges were 0.1-100 ng/mL, 1-1000 ng/g, and 1-1000 ng/g, respectively. Briefly, analytical methods were as follows: i) plasma and aqueous humor standards were from minipig and rabbit, respectively; ii) bulbar conjunctiva, cornea, ICB standard was rabbit cornea; iii) eyelid standard was pig skin. The internal standard working solution for analytical purposes was comprised of 20.0 ng/mL ^13C2, ^15N-labeled compound of Formula I in acetonitrile with 1% formic acid (v/v) which was being added to each sample. […]

[7] = in vitro skin penetration, human cadaver skin in Franz-type diffusion cells; assay type: in vitro ADME
Description: An in vitro skin penetration model using human cadaver skin mounted in Franz-type diffusion cells (FDC) was chosen to determine the skin permeation of the compound of Formula I applied as a 2% cream to the epidermal surface. Transdermal flux into a receptor fluid was measured over a period of 46 hours after application of the formulations. At the end of the 46-hour incubation period, the skin was tape-stripped and heat separated based on an established method and the concentration of the compound of Formula I was measured in the residual epidermis and dermis. The applied formulations comprised of 2% w/w compound of Formula I, 46% w/w white petrolatum, 8% w/w mineral oil, 8% w/w propylene glycol, 6.6% w/w ST-cyclomethicone-SNF, 3.3% w/w emulsifier 10, 2% w/w ST-elastomer-10, 0.08% w/w methylparaben, 0.06% w/w sodium phosphate dibasic anhydrous, 0.05% w/w citric acid anhydrous, 0.02% w/w propylparaben, and q.s. purified water. Vehicle cream comprised of 48% w/w white petrolatum, 8% w/w mineral oil, 8% w/w propylene glycol, 6.6% w/w ST-cyclomethicone-SNF, 3.3% w/w emulsifier 10, 2% w/w ST-elastomer-10, 0.08% w/w methylparaben, 0.06% w/w sodium phosphate dibasic anhydrous, 0.05% w/w citric acid anhydrous, 0.02% w/w propylparaben, and q.s. purified water was also tested as a negative control. […]
A high performance liquid chromatography UV (“HPLC-UV”) analytical method and an LC-MS/MS method for detecting the compound of Formula I in the skin and in the receptor fluid samples, respectively, was implemented and employed mobile phases A (0.05 mL trifluoroacetic acid (TFA) in 1000 mL LC-MS grade water) and B (0.05 mL TFA in 1000 mL LC-MS grade acetonitrile). The lower level of quantification (LLOQ) for the compound of Formula I for the LC-MS/MS method was determined to be in the 6-10 ng/mL range.

glucocorticoid receptor [8] = biological target: T1, glucocorticoid receptor; settings: number of assays; cited from earlier work
[9] = tested on: cynomolgus monkeys with unilateral (OS) ocular hypertension; test: diurnal intraocular pressure during 4-week topical ocular treatment in ocular hypertensive monkeys; assay type: in vivo; settings: 4 weeks
Description: To test the effect of the compound of Formula I on intraocular pressure (IOP), eight female cynomolgus monkeys with unilateral (OS) ocular hypertension induced by prior photocoagulation (laser) procedure to the trabecular meshwork (TM) were used at an age between 11 and 14 years at the start of the study. Laser induced ocular hypertension had been created at least 9 years earlier in the study animals. Animals and treatments were randomized according to a 4×4 replications Williams-type Latin Square design layout. Following random assignment of a number between 1 and 8, the eight primates were randomized two each into four treatment groups (A-D), with treatments masked for the investigators until all data had been collected and entered into a database. […]
Conscious animals were seated in custom-designed chairs, and […] was measured with a pneumatonometer (Classic 30, Reichert Depew) after topical application of proparacaine hydrochloride (0.13%) in both eyes (FIG. 1). […] During run-in and treatment periods, diurnal IOP was determined two times per week at approximately 8:30 am, 1 pm, and 5 pm. For each animal bilateral tonometry was followed immediately by topical instillation of the appropriate drug formulation A, B, C, or D. During washout periods, diurnal IOP was measured once per week in both eyes at approximately 8:30 am, 1 pm, and 5 pm.

protein binding = assay type: in vitro ADME
[10] = tested on: models of lung inflammation; settings: mouse, intratracheal dosing; cited from earlier work
[11] = 46 hours after 10 μL of 2% cream on epidermal surface, 6 replicates

Compound: CCC(=O)O[C@]1(C(=O)SCF)[C@H](C)C[C@H]2[C@@H]3C[C@H](F)C4=CC(=O)C=C[C@]4(C)[C@@]3(F)[C@@H](O)C[C@@]21C [FP, fluticasone propionate, reference compound]
transrepression of NFκB pathway activation (IL-6, IL-8 release) (NFκB pathway): potently and efficiently transrepress

highest mean concentration in eyelid tissue ([2]; 4 hours post final dose, 2% cream, 15 applications over 7.5 days): 30613 ng/g
concentration at 8 h ([2]; Hanford, minipig, aqueous humor, topical, BID, 2% cream, 15 applications over 7.5 days, read-out: mean concentration in aqueous humor): 5.81 ng/g
concentration at 4 h ([2]; Hanford, minipig, bulbar conjunctiva, topical, BID, 4 hours post final dose, 2% cream, 15 applications over 7.5 days): 1930 ng/g
concentration at 8 h ([2]; Hanford, minipig, cornea, topical, BID, 2% cream, 15 applications over 7.5 days, read-out: mean concentration in cornea): 452 ng/g
concentration at 24 h ([2]; Hanford, minipig, iris/ciliary body (ICB), topical, BID, 24 hours post final dose, 2% cream, 15 applications over 7.5 days): 20.5 ng/g
solubility [3]: ~35.8 µg/mL
highest plasma concentration ([6]; 24 hours following the final Day 8 dose): 2.22 ng/mL
systemic accumulation ([6]; after 7.5 days of multiple topical eyelid application): no or very low systemic accumulation
detection in transdermal receptor fluid ([7]; 4, 8, 24 and 46 hours after application of 2% cream): not in the transdermal receptor fluid
accumulated amount in the dermis [7, 11]: 0.73+/−0.21 μg/cm^2
accumulated amount in the epidermis [7, 11]: 2.89+/−0.32 μg/cm^2
effect on intraocular pressure (IOP) ([9]; 10 mg/mL suspension, 25 μL OU TID, topical to the eye): did not result in increased IOP
fraction unbound (protein binding): ~0.01
Compound: C[C@@H]1C[C@H]2[C@@H]3C[C@H](F)C4=CC(=O)C=C[C@]4(C)[C@@]3(F)[C@@H](O)C[C@]2(C)[C@@]1(OC(=O)C1C(C)(C)C1(C)C)C(=O)OCC#N [compound of Formula I, 6α,9α-difluoro-11 β-hydroxy-16α-methyl-3-oxo-17α-(2,2,3,3-tetramethycyclopropylcarbonyl)oxy-androsta-1,4-diene-17β-carboxylic acid cyanomethyl ester]
glucocorticoid receptor-mediated transrepression activity (glucocorticoid receptor [1]): close to full agonism
exposure levels in each compartment over time ([2]; eyelids, conjunctiva, cornea, ICB, aqueous humor, post final peri-ocular dose): remained almost constant for up to 24 hours
tear formation (Schirmer test) [4]: prevented a decrease in tear formation similar to topical dexamethasone
anti-inflammatory activity in models of lung inflammation [5]: potent anti-inflammatory activity
plasma exposure ([6]; up to 24 hours after last application, LLOQ 0.1 ng/mL): generally low or below the lower limit of quantification
transrepression of NFκB pathway activation (IL-6, IL-8 release) (NFκB pathway): potently and efficiently transrepress
glucocorticoid receptor-mediated transactivation (glucocorticoid receptor [8]): partial response
IOP compared with dexamethasone treatment ([9]; 10 mg/mL suspension vs MAXIDEX 1 mg/mL, TID): significantly lower than dexamethasone treatment
anti-inflammatory activity in models of lung inflammation [10]: potent anti-inflammatory activity
